Experimental data taken from patent US20250177469A1, “SANGUISORBA OFFICINALIS LINNE EXTRACT COMPOSITION INHIBITING 3CL PROTEASE AND RDRP ACTIVITY OF SARS-COV-2” (QGENETICS CO., LTD., priority 2021, published 2025).

Test system: SARS-CoV-2
Test: CPE inhibition of SARS-CoV-2 in VERO-E6 cells
Type: cell-based
Settings: 200 TCID50, 3 days, average of three repeats, FIG. 4

Structure (SMILES) | average CPE inhibition value [µg/mL]
CC(C)C[C@H](NC(=O)OCc1ccccc1)C(=O)N[C@@H](C[C@@H]1CCNC1=O)C(O)S(=O)(=O)[O-].[Na+] (some centres unmarked) [GC376] | 3.125
CCC(CC)COC(=O)[C@H](C)N[P@](=O)(OC[C@H]1O[C@@](C#N)(c2ccc3c(N)ncnn23)[C@H](O)[C@@H]1O)Oc1ccccc1 [remdesivir] | 8.333
